# Experimental data taken from patent US5079257A, “Indoloquinone compounds” (priority 1986, dated 1992).
# Where two headings read alike, the source gives them in different places.
# Columns and labels:
# L1210 cells [1] = experiment: L1210 activity (bioliquid assay), cytotoxicity; type: cell-based; conditions: Mus musculus
# How it was run: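 Suspension culture in RPMI with 15% FCS and 2-mercaptoethanol (60 μmol). Continuous compound exposure for 48 hours at 37° C under 5% CO2 in humidified air. Cell numbers then counted on an electronic microcell counter.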
# L1210 = experiment: In vivo L1210 experiments (TNO Rijswijk); design: species or system mice
# Method: The in vivo L1210 experiments were carried out in male Balb/c X DBA.2 Fl hybrid mice at TNO, Rijswijk.
# In these experiments also, the drugs were administered IP as suspensions in carboxymethyl cellulose […] as a single dose at the first day.
# in vivo = experiment: in vivo; design: species or system mice; conditions: mouse, IP, single dose, suspension in carboxymethyl cellulose (2%)
# Method: The acute toxicity experiments were carried out with male C5 Black/Rij X CBA/Rij Fl hybrid mice at TNO, Rijswijk. The drugs were administrated IP as suspensions in carboxymethyl cellulose (2%) as a single dose at the first day.
# [2] = Half-wave reduction potentials / polarography (University of Utrecht); type: physicochemical
# Source text: *The halve wave reduction potentials (E1/2) have been determined at the
# Pharmaceutical Laboratory of University of Utrecht. Only the first
# (quinone) reduction potential has been given.
# Additional evidence for the occurrence of a bioreductive activation mechanism during the cytotoxic action of indoloquinones (II) was obtained via electrochemical studies, which have been carried out at the Pharmaceutical Laboratory of the University of Utrecht. […]
# [3] = tested on: R-1 cells (Rhabdomyosarcoma Cells); experiment: R-1 activity (bioliquid assay), cytotoxicity; type: cell-based; conditions: Rhabdomyosarcoma cell
# How it was run: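 Rhabdomyosarcoma R-1 cells (~10^6 per dish) in Dulbecco's medium with 10% FCS were exposed to drug solution, which was then replaced by fresh medium. Cells were trypsinized after 48 hours and counted electronically.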
# L1210 cells [4] = experiment: L1210 activity in clonogenic assay (TNO Rijswijk); type: cell-based; conditions: Mus musculus, L1210, 192 h, read-out: ID-50 L1210, clonogenic assay
# Source text: The indoloquinones II (formula II) have been tested in respect of their cytotoxic activity against L1210 cells and R-1 cells (Rhabdomyosarcoma Cells) in a bioliquid assay at the department of oncology of the Free University of Amsterdam (Table I). In addition to this seven compounds (E.O. 1, E.O. 2, E.O. 4, E.O. 7, E.O. 9, E.O. 16 and E.O. 17) have been tested on L1210 activity in a clonogenic assay at TNO, Rijswijk. Further, the lowest active doses of the compounds E.O. 1, E.O. 2, E.O. 4 and E.O. 9 have been determined at TNO Rijswijk, according to the method described by Lamberts et al. [Oncology, 40, 301 (1983)]. (Table II). Eight indoloquinones (E.O. 1, E.O. 2, E.O. 4, E.O. 4A, E.O. 8, E.O. 9, E.O. 33 and E.O. 35) have been tested in a panel of five human tumour lines (TNO Rijswijk; Table III). From the latter group three indoloquinones (E.O. 1, E.O. 4 and E.O. 9) have been selected for a cytotoxicity study, involving five slowly growing human tumour lines (University of Freiburg; Table IV).
# The L1210 clonogenic assay used was an improved variant of the method described earlier by H. MARTIN et al. [Cancer Chemother., Rep., 51 451 (1967)] and L. M. van Putten et al. [Cancer Treat. Rep., 60, 373 (1976)] for the growth into colonies of L1210 cells in a soft agar medium. From a suspension culture ~100 L1210 Cells (0.1 ml) were plated into […] culture dishes (Falcon), containing 1 ml of soft agar growth medium and the compound to be tested in appropriate concentrations. The soft agar growth medium consisted of Dulbecco medium supplemented with 15.8% horse serum, 60 μmol 2-mercapto-ethanol, 20 mg/ml L-asparagine and 0.3% bacto agar (Difco).
# The culture dishes were incubated at 37° C. in an atmosphere of 1% CO2 in humidified air for 8 days. After this period of continuous drug exposure, colonies were counted and dose-effect curves were made.
# [5] = tested on: A 204 cells; rhabdomyosarcoma; experiment: In vitro panel of human tumour lines (TNO): A 204; type: cell-based; conditions: about 72 hours; note: key: -: no inhibition of cell growth; +: total cell-kill
# Method: (§1) Compounds E.O. 1, E.O. 2, E.O. 4, E.O. 4A, E.O. 8, E.O. 9, […], E.O. 33, and E.O. 35 were tested for their activity against five human tumour cell lines at the Radiobiological Institute TNO Rijswijk.
# (§2) The new in vitro prescreen uses human tumour clones; it was set up by Dr. P. Lelieveld at TNO Rijswijk and comprises testing compounds in a bioliquid assay for their cytostatic activity against the following five human tumour lines:
# (§3) After a continuous exposure to the drugs to be tested and to Adriamycin in `24 well tissue culture clusters, type 3524 (Costar)`, the remaining cells are fixed and stained. Using increasing drug concentrations the inhibiting concentration can be estimated qualitatively.
# (§4) Cells: the human tumour cells are maintained in Dulbecco's medium supplemented with 10 percent foetal calf serum.
# (§5) A, T and Z cell suspensions: 5·10^4 cells/ml
# (§6) The cells were grafted into 16 mm wells for 48 hours (0.5 ml cell suspension per well was used).
# (§7) Drugs: the compound to be tested was dissolved in appropriate concentrations in a mixture of Hepes-buffered Hanks' balanced salt solution and ethanol. The drug solutions (0.05 ml) were added to the different wells. The final ethanol concentration in each well was less than one percent.
# (§8) The cells were continuously incubated with the compound under test at 37° in an atmosphere of 10 percent CO2 in humidified air for about 72 hours.
# (§9) Determination of the inhibiting dose: the cells were fixed and stained with a solution of crystal violet in methanol/formaldehyde.
# [6] = tested on: T 24 cells; bladder carcinoma; experiment: In vitro panel of human tumour lines (TNO): T 24; type: cell-based; conditions: about 72 hours; note: key: -: no inhibition of cell growth; +: total cell-kill
# Method: as §1, §2, §3, §4, §5, §6, §7, §8, §9
# MCF7 breast cancer cells = experiment: In vitro panel of human tumour lines (TNO): MCF-7; type: cell-based; conditions: about 72 hours; note: key: -: no inhibition of cell growth; +: total cell-kill
# Method: as §1, §2, §3, §4
# (§10) M and W cell suspensions: 10^5 cells/ml.
# as §6, §7, §8, §9
# [7] = Cytotoxic activity (test not specified); type: cell-based
# WiDr cells; colon tumour = experiment: In vitro panel of human tumour lines (TNO): WiDr; type: cell-based; conditions: about 72 hours; note: key: -: no inhibition of cell growth; +: total cell-kill
# Method: as §1, §2, §3, §4, §10, §6, §7, §8, §9
# IgR37 cells melanoma = experiment: In vitro panel of human tumour lines (TNO): IgR-37; type: cell-based; conditions: about 72 hours; note: key: -: no inhibition of cell growth; +: total cell-kill
# Method: as §1, §2, §3, §4, §5, §6, §7, §8, §9
# [8] = 8 days continuous exposure, TNO Rijswijk
structure (smiles),measurement,setting,value
"COC1=CC(=O)c2c(c(CO)c(/C=C/CO)n2C)C1=O [E.O. 7, 3-Hydroxymethyl-5-methoxy-1-methyl-2-[1H-indole-4,7-dione]prop-β-en-α-ol]",IC50,"L1210 cells [1]; L1210, Table I, bioliquid assay, 48 hours, read-out: ID-50 L1210",0.5 µg/mL
same,% T/C,L1210; 250 mg/kg IP single dose,tox.
same,LD50,in vivo,> 100 mg/kg
same,direct current polarogram,[2]; DC-polarography,a reduction wave representing the reversible reduction of the benzoquinone nucleus
same,"half-wave potential E1.2, wave I",[2]; pH = 8 vs Ag/AgCl,-367 mV
same,IC50,"[3]; Table I, bioliquid assay, read-out: ID-50 R-1",4.2 µg/mL
same,IC50,L1210 cells [4]; [8],2.2 µg/mL
"CCCCn1c(/C=C/CO)c(CO)c2c1C(=O)C=C(OC)C2=O [E.O. 16, 3-Hydroxymethyl-5-methoxy-1-butyl-2-[1H-indole-4,7-dione]prop-β-en-α-ol]",response vs control in vivo at 80 mg/kg,"L1210; Mus musculus, L1210, 80 mg/kg IP single dose, read-out: % T/C",89%
same,response vs control in vivo at 100 mg/kg,"L1210; Mus musculus, L1210, 100 mg/kg IP single dose, read-out: % T/C",100%
same,LD50,in vivo,80 mg/kg
same,IC50,L1210 cells [4]; [8],0.9 µg/mL
"CCCCn1c(/C=C/CO)c(CO)c2c1C(=O)C=C(N1CC1)C2=O [E.O. 17, 5-Aziridino-3-hydroxymethyl-1-butyl-2-[1H-indole-4,7-dione]prop-β-en-αol]",LD50,in vivo,50 to 80 mg/kg
same,IC50,L1210 cells [4],0.3 µg/mL
"COC(=O)/C=C/c1c(C(=O)OC)c2c(n1C)C(=O)C=C(N1CC1)C2=O [E.O. 22, Methyl 5-aziridino-3-methoxycarbonyl-1-methyl-2-[1H-indole-4,7-dione]acrylate]","in vitro activity score, A 204",[5]; 0.01 μg/ml,-
same,"in vitro activity score, A 204",[5]; 0.1 μg/ml,-
same,"in vitro activity score, A 204",[5]; 1.0 μg/ml,+
same,"in vitro activity score, T 24",[6]; 0.01 μg/ml,-
same,"in vitro activity score, T 24",[6]; 0.1 μg/ml,-
same,"in vitro activity score, T 24",[6]; 1.0 μg/ml,+
same,IC50,"L1210 cells [1]; L1210, 48 h, read-out: ID-50 L1210, Table IA, para-indoloquinone diesters",0.01 µg/mL
same,"in vitro activity score, MCF-7",MCF7 breast cancer cells; 0.01 μg/ml,-
same,"in vitro activity score, MCF-7",MCF7 breast cancer cells; 0.1 μg/ml,-
same,"E1/2, halve wave reduction potential","[2]; Table IA, only the first (quinone) reduction potential",-179 mV
same,IC50,"[3]; read-out: ID-50 R-1, Table IA, para-indoloquinone diesters",0.5 µg/mL
same,cytotoxic activities,[7],high cytotoxic activities
same,"in vitro activity score, WiDr",WiDr cells; colon tumour; 0.01 μg/ml,-
same,"in vitro activity score, WiDr",WiDr cells; colon tumour; 0.1 μg/ml,-
same,"in vitro activity score, IgR-37",IgR37 cells melanoma; 0.01 μg/ml,-
same,"in vitro activity score, IgR-37",IgR37 cells melanoma; 0.1 μg/ml,-
same,"in vitro activity score, IgR-37",IgR37 cells melanoma; 1.0 μg/ml,+
